For one series, the system named is HIV. Put plainly: Anti-AIDS (HIV) activity in HIV-infected MT-4 cells (MTT method). The class given is cell-based. The note with it: for EC50 (50% effective concentration, prevention of 50% of cytopathogenic effects of HIV): 37° C., MTT method. As to the method:
(§1) Evaluation method: Test substances having various concentrations were placed in a 96-well microtiter plate along with HIV-infected MT-4 cells (2.5×10^4 /well, MOI: 0.01) immediately after the infection thereof. In order to ascertain the cytotoxicity of the test substance with respect to the MT-4 cells, non-infected cells were cultured in an identical manner along with the test substances of various concentrations. After culturing for 5 days at a temperature of 37° C. in a CO2 incubator, the number of living cells was determined using the MTT method. The antiviral activity is shown in terms of the concentration which prevented 50% of the cytopathogenic effects of the HIV virus (EC50 : 50% effective concentration) and the cytotoxicity is shown in terms of the concentration at which the cytotoxicity of the test substance reaches 50% (CC50 : 50% cytotoxic concentration).Furthermore, the selectivity index (S.I.) is calculated as CC50 /EC50.
(§2) (Reference: Pauwels, et al., J. Viral Methods, 20 (1988) 309-321). Using this method, the compounds of Examples 30-43 were tested for anti-HIV activity. The compounds shown in Table 2 (Examples 35~38) are produced by means of novel sulfation methods. For the purposes of comparison, the conventional anti-AIDS agents AZT (3'-azido-2',3'-dideoxythymidine) and dextran sulfate were also tested, and the results thereof are appended as comparative data.
On the technique in general: Tetrazolium dyes change colour on reduction, which living cells bring about.

Another series relates to MT-4 cells. In words: Cytotoxicity with respect to non-infected MT-4 cells (MTT method). The class given is cell-based. As to conditions: 5 days; for CC50 (50% cytotoxic concentration): 37° C., MTT method. As to the method:
as §1, §2

Where [1] appears, read: HIV-infected MT-4 cells, MOI 0.01, 5 days.

Where only a bound is given, the exact number is not on record here.

On to `Cc1cn([C@H]2C[C@H](N=[N+]=[N-])[C@@H](CO)O2)c(=O)[nH]c1=O` [AZT, 3'-azido-2',3'-dideoxythymidine, reference compound], for which, in the series on HIV (CC50/EC50, MT-4 cells, HIV), the “SI (selectivity index, CC50/EC50)” value is 2700. Moreover, the EC50 in the series on HIV (Human immunodeficiency virus 1, MT4, 120 h, AZT, footnote: units are μM, HIV-infected MT-4 cells, MOI 0.01, 5 days, read-out: EC50 (50% effective concentration)) amounted to 0.004 µM. In addition, the CC50 in the series on MT-4 cells (AZT, footnote: units are μM, read-out: CC50 (50% cytotoxic concentration)) was 10.8 µM.
For the compound “p-heptyloxyphenyl β-D-glucopyranosyl-(1→3)-{β-D-glucopyranosyl (1→3)}3 -β-D-glucopyranoside sulfate [Example 36]”, in the series with HIV (setting [1]), the “EC50 (50% effective concentration, prevention of 50% of cytopathogenic effects of HIV)” value is 0.062 µg/mL. Also, in the series with MT-4 cells, the “CC50 (50% cytotoxic concentration)” value was greater than 1000 µg/mL.
As for “p-pentylphenyl β-D-glucopyranosyl-(1→3)-{β-D-glucopyranosyl (1→3)}3 -β-D-glucopyranoside sulfate [Example 31]”, in the series with HIV (setting [1]), the “EC50 (50% effective concentration, prevention of 50% of cytopathogenic effects of HIV)” value is 0.75 µg/mL. Moreover, the “CC50 (50% cytotoxic concentration)” value in the series with MT-4 cells was greater than 1000 µg/mL.
The like results for “p-octylphenyl β-D-glucopyranosyl-(1→3)-{β-D-glucopyranosyl (1→3)}5 -β-D-glucopyranoside sulfate [Example 34]” were, in that order, 0.31 µg/mL and greater than 1000 µg/mL.
As for “p-(1,1,3,3-tetramethylbutyl)phenyl β-D-glucopyranosyl-(1→3)-{β-D-glucopyranosyl-(1→3)}m -β-D-glucopyranoside sulfate [Example 38]”, the “EC50 (50% effective concentration, prevention of 50% of cytopathogenic effects of HIV)” value in the series with HIV (setting [1]) worked out at 0.020 µg/mL. For the same compound, in the series with MT-4 cells, the “CC50 (50% cytotoxic concentration)” value is greater than 1000 µg/mL.
For “octyloxyphenyl β-D-galactopyranosyl-(1→4)-β-D-galactopyranosyl-(1→4)-β-D-glucopyranoside sulfate [Example 41]”, in the series on HIV (setting [1]), the “EC50 (50% effective concentration, prevention of 50% of cytopathogenic effects of HIV)” value is 1.12 µg/mL. The “CC50 (50% cytotoxic concentration)” value with MT-4 cells was greater than 1000 µg/mL.
The like results for “p-(1,1,3,3-tetramethylbutyl)phenyl β-D-galactopyranosyl-(1→4)-{β-D-galactopyranosyl-(1→4)}2 -β-D-glucopyranoside sulfate [Example 43]” were, in that order, 0.04 µg/mL and greater than 1000 µg/mL.
On the same counts, the results for “sulfated p-heptyloxyphenyl β-D-glucopyranosyl-(1→3)-{β-D-glucopyranosyl-(1→3)}3 -β-D-glucopyranoside [Example 32]” are 0.72 µg/mL and greater than 1000 µg/mL.
On the same counts, the results for “p-octylphenyl β-D-glucopyranosyl-(1→3)-{β-D-glucopyranosyl (1→3)}3 -β-D-glucopyranoside sulfate [Example 30]” are 0.62 µg/mL and greater than 1000 µg/mL.
For the compound “p-heptyloxyphenyl β-D-glucopyranosyl-(1→3)-{β-D-glucopyranosyl-(1→3)}3 -β-D-glucopyranoside sulfate [Example 33]”, in the series on HIV (setting [1]), the “EC50 (50% effective concentration, prevention of 50% of cytopathogenic effects of HIV)” value stood at 0.77 µg/mL. Further, in the series on MT-4 cells, the “CC50 (50% cytotoxic concentration)” value was greater than 1000 µg/mL.
The like results for “p-(1,1,3,3-tetramethylbutyl)phenyl β-D-glucopyranosyl-(1→3)-{β-D-glucopyranosyl-(1→3)}3 -β-D-glucopyranoside sulfate [Example 35]” were, in that order, 0.038 µg/mL and greater than 1000 µg/mL.
The like results for dextran sulfate [reference compound] were, in that order, 0.50 µg/mL and greater than 1000 µg/mL.
In the case of “octylphenyl β-D-galactopyranosyl-(1→4)-{β-D-galactopyranosyl-(1→4)}2 -β-D-glucopyranoside sulfate [Example 39]”, the “EC50 (50% effective concentration, prevention of 50% of cytopathogenic effects of HIV)” value in the series with HIV (setting [1]) amounted to 0.82 µg/mL. Moreover, the “CC50 (50% cytotoxic concentration)” value with MT-4 cells was greater than 1000 µg/mL.
The like results for “octyloxyphenyl β-D-galactopyranosyl-(1→4)-{β-D-galactopyranosyl-(1→4)}2 -β-D-glucopyranoside sulfate [Example 40]” were, in that order, 0.95 µg/mL and greater than 1000 µg/mL.
The like results for “p-octylphenyl β-D-glucopyranosyl-(1→3)-{β-D-glucopyranosyl (1→3)}3 -β-D-glucopyranoside sulfate [Example 37]” were, in that order, 0.080 µg/mL and greater than 1000 µg/mL.
On the same counts, the results for “heptyloxyphenyl β-D-galactopyranosyl-(1→4)-{β-D-galactopyranosyl-(1→4)}2 -β-D-glucopyranoside sulfate [Example 42]” are 0.23 µg/mL and greater than 1000 µg/mL.

For the origin of these results see US5498602A, “Oligosaccharide aromatic glycoside and sulfate thereof” (priority 1991, dated 1996).
